Results taken from PMC5583658, “6,7-dimethoxy-1,2,3,4-tetrahydro-isoquinoline-3-carboxylic acid attenuates heptatocellular carcinoma in rats with NMR-based metabolic perturbations” (Future Science OA, 2017).

Legend:
[1] = tested on: diethylnitrosamine-induced hepatocarcinogenic rats; test: Bilirubin and biliverdin in liver of DEN-induced HCC rats; format: in vivo, albino Wistar rats; settings: for Bilirubin / Biliverdin: 15 days, mean ± SD, n = 6
Procedure: (§1) All animals were randomly divided into five groups of six animals each. Drugs were suspended in 0.25% CMC, subjected to 28 days’ treatment orally and divided as follows: Group I: 0.25% CMC (2 ml/kg), Group II: DEN (8 mg/kg, intraperitoneally), Group III: DEN+5-fluorouracil (5-FU, 10 mg/kg, intraperitoneally), Group IV: DEN+M1 (50 mg/kg, orally) and Group V: DEN+M1 (100 mg/kg, orally). The procedure to induce HCC was adopted from a paper by Song et al. where it is shown that DEN produces HCC at 8 mg/kg intraperitoneal injection for 28 days to albino Wistar rats. After initial 1 week of adaptive inhabitation, all rats of group II–V were administered with DEN (8 mg/kg, intraperitoneally) for 28 days. After 28 days, 5-FU and M1 were given for 15 days as mentioned above for group III–V. At the end of the experimental period, animals were sacrificed by cervical decapitation and livers were dissected out immediately, rinsed in ice cold saline and stored at -20°C for further studies. The serum was collected, processed and stored for further analysis.
(§2) Liver function biomarkers like aspartate aminotransferase (AST), alanine aminotransferase (ALT) were also measured in serum using commercially available kit from Ebra Diagonesis Pvt Ltd, Germany. The oxidative parameters like superoxide dismutase (SOD), thiobarbituric acid reactive substances (TBARS), protein carbonyl (PC), SOD [14], tissue catalase (CAT) and glutathione (GSH) levels were estimated in liver tissue in the similar experiment. The total protein content of each sample was measured using the Bradford reagent and bovine serum albumin was used as a standard. Conjugated bilirubin and biliverdin in liver were measured as per the following procedure stated earlier in the literature with slight modifications.

Huh-7 cells = settings: in vitro, MTT assay; M1 isolated from MP seeds; cited from earlier work
[2] = tested on: diethylnitrosamine-induced hepatocarcinogenic rats; test: ALT and AST in plasma of DEN-induced HCC rats; format: in vivo, albino Wistar rats; settings: 15 days, mean ± SD, n = 6
Procedure: as §1, §2

albino Wistar rats = test: Acute oral toxicity study (OECD Guidelines 423); format: in vivo; settings: for Bilirubin / Bilverdin / CAT / MDA / PC / Reduced GSH / SOD: liver; for Bilirubin / Bilverdin / CAT / MDA / PC / Reduced GSH / SOD / AST / ALT: normal rats, mean±SD, n=6; for AST / ALT: plasma
Procedure: Acute oral toxicity study of M1 was performed as per revised Organization for Economic Cooperation and Development Guidelines 423. Animal Ethical Committee approved this study (Approval No. SDCOP&VS/AH/CPCSE01/017/R2). M1 was dissolved in 0.25% carboxymethyl cellulose (CMC) and administered orally at the dose of 25, 50, 100, 250 mg/kg body weight to albino Wistar rats for 4 weeks (n = 6) and the animals were observed every day for any toxic manifestations.

## COc1cc2c(cc1OC)CC(C(=O)O)NC2 (centres unmarked) [M1, 6,7-dimethoxy-1,2,3,4-tetrahydro-isoquinoline-3-carboxylic acid]
[1]; DEN+M1 50 mg/kg orally
  Bilirubin: 50.59 ± 1.39 ng/μg of protein
  Biliverdin: 21.19 ± 2.42 ng/μg of protein
[1]; DEN+M1 100 mg/kg orally
  Bilirubin: 40.64 ± 3.47 ng/μg of protein
  Biliverdin: 16.95 ± 1.96 ng/μg of protein
[1]; M1-treated rats, text value (toxic control ∼28 ng)
  biliverdin concentration: ~16 ng
Huh-7 cells
  antiproliferative action on Huh-7 cells: good antiproliferative action
[2]; DEN+M1 50 mg/kg orally
  ALT: 88.4 ± 3.18 U/L
  AST: 47.73 ± 1.76 U/L
[2]; DEN+M1 100 mg/kg orally
  ALT: 58.04 ± 2.84 U/L
  AST: 40.95 ± 1.35 U/L
Albino Wistar rats; M1 dose ranging from 25 to 250 mg/kg orally
  changes in ALT, AST, bilirubin, biliverdin, SOD, CAT, PC, GSH, TBARS as compared with normal control: no significant changes
Albino Wistar rats; M1 25 mg/kg orally
  Bilirubin: 19.24±1.27 ng/µg of protein
  Bilverdin: 7.15±0.78 ng/µg of protein
  CAT: 8.22 ± 1.91 nM of H2O2 /min/μg of protein
  MDA: 9.25 ± 2.87 nM/μg of protein
  PC: 0.68 ± 0.17 µM/μg of protein
  Reduced GSH: 4.94 ± 1.17 µM/μg of protein
  SOD: 14.27 ± 2.88 U/μg of protein
  AST: 11.33 ± 3.67 U/L
Albino Wistar rats; M1 50 mg/kg orally
  Bilirubin: 19.11±3.19 ng/µg of protein
  Bilverdin: 5.99±1.04 ng/µg of protein
  CAT: 6.94 ± 2.06 nM of H2O2 /min/μg of protein
  MDA: 10.11 ± 0.96 nM/μg of protein
  PC: 0.62 ± 0.05 µM/μg of protein
  Reduced GSH: 5.42 ± 1.34 µM/μg of protein
  SOD: 9.78 ± 1.17 U/μg of protein
  ALT: 33.16± 4.22 U/L
  AST: 11.90 ± 1.69 U/L
Albino Wistar rats; M1 100 mg/kg orally
  Bilirubin: 18.24±2.55 ng/µg of protein
  Bilverdin: 7.62±1.45 ng/µg of protein
  CAT: 8.45 ± 1.59 nM of H2O2 /min/μg of protein
  MDA: 11.22 ± 1.91 nM/μg of protein
  PC: 0.49 ± 0.07 µM/μg of protein
  Reduced GSH: 5.78 ± 1.65 µM/μg of protein
  SOD: 8.97 ± 1.95 U/μg of protein
  ALT: 33.24 ± 1.57 U/L
  AST: 14.33 ± 1.28 U/L
Albino Wistar rats; M1 250 mg/kg orally
  Bilirubin: 20.13±2.56 ng/µg of protein
  Bilverdin: 7.91±0.99 ng/µg of protein
  CAT: 7.38 ± 1.28 nM of H2O2 /min/μg of protein
  MDA: 12.33 ± 2.17 nM/μg of protein
  PC: 0.48 ± 0.08 µM/μg of protein
  Reduced GSH: 6.22 ± 1.07 µM/μg of protein
  SOD: 9.12 ± 1.65 U/μg of protein
  ALT: 35.11 ± 2.84 U/L
  AST: 14.92 ± 3.52 U/L
Albino Wistar rats; oral, albino Wistar rats, 4 weeks
  safe dose: up to 250 mg/kg body weight
